In patent US12139471B2, “NLRP3 inflammasome inhibitors” (Novartis AG, priority 2019, dated 2024):

Key:
[1] = molecular target: T1, NLRP3 inflammasome (Homo sapiens, UniProt Q96P20); experiment: IL-1β secretion assay (nigericin-activated, PMA-differentiated THP-1 cells, HTRF); type: cell-based; settings: PMA-differentiated THP-1 cells; compound 1 hour, then 15 μM nigericin, 3 hours; IL-1β by HTRF; read-out: IL-1β IC50
T1 construct: host or cells: THP-1 cells, PMA-differentiated
Method: 10 μL supernatant was removed, and IL-1β levels were monitored using an HTRF assay (CisBio, #62IL1PEC) according to manufacturers' instructions. Viability and pyroptosis was monitored with the addition of PrestoBlue cell viability reagent (Life Technologies, #A13261) directly to the cell culture plate.
IC50 values were calculated from the plot of percentage of inhibition versus the inhibitor concentration by a logistics fit according to: y=A2+(A1−A2)/(1+(x/IC50)^p) where y is the %-inhibition at the inhibitor concentration, x. A1 is the lowest inhibition value, i.e. 0%, and A2 the maximum inhibition value, i.e. 100%. The exponent, p, is the Hill coefficient. The curve fitting was conducted with an internally developed software suite.
NLRP3-dependent IL-1β secretion was stimulated in PMA-differentiated THP-1 cells by the addition of nigericin, and cytokines were measured in the […] after 3 hours. As discussed above, activation of the NLRP3 inflammasome requires both an NF-kB-dependent priming step and the addition of a NLRP3 activator.

[2] = system: NF-kB-dependent TNF-α secretion; experiment: TNF-α secretion assay (counter screen, THP-1 cells, HTRF); type: cell-based; settings: undifferentiated THP-1 cells, Pam3CSK4-stimulated, 3 hours, TNF-α by HTRF
Method: Monocytic THP-1 cells were maintained according to providers' instructions in RPMI media as described above. […] Experimental compounds were prepared and added as described above. TNF-α secretion was triggered by the addition of either 1 μg/mL LPS (Sigma, #L4391) or 100 ng/mL Pam3CSK4 (Invivogen, #tlri-pms) depending on the experiment, and cells were incubated for 3 hours. 10 μL supernatant was removed, and TNF-α levels were monitored using an HTRF assay (CisBio, #62TNFPEC) according to manufacturers' instructions. Viability was monitored as described above.

T1 sequence (Q96P20 whole entry): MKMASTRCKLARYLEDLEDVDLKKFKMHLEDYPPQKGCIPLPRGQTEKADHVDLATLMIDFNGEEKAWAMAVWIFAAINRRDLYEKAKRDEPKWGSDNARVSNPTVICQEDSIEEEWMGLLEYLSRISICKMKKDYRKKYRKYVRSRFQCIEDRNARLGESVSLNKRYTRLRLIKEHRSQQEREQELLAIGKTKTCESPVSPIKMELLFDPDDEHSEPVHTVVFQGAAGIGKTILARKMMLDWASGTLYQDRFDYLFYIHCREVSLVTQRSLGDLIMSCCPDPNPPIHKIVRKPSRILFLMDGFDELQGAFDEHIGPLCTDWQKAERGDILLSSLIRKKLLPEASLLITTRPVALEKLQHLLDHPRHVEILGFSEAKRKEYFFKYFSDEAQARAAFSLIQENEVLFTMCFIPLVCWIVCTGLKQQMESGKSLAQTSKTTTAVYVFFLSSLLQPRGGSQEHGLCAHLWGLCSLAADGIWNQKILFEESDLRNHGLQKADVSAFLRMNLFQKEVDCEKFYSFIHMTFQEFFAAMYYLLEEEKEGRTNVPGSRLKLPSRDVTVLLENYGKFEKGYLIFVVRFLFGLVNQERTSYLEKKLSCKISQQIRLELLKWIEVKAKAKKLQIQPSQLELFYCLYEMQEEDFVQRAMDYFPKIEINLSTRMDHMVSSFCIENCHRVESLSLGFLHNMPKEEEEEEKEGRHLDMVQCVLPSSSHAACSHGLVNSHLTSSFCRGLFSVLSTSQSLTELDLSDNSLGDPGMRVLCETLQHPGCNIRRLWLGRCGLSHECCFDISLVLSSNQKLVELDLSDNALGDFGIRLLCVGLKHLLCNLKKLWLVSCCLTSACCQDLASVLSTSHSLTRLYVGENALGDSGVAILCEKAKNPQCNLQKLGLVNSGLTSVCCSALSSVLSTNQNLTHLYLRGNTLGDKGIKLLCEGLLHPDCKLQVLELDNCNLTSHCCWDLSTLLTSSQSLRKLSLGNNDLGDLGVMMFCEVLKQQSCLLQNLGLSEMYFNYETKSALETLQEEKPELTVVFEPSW

| Compound | IC50 [1] | IC50 [2] |
| --- | --- | --- |
| Cc1cc(C(F)(F)F)cc(O)c1-c1ccc(NCC(C)(C)O)nn1 [Ex 15, 2-(6-((2-Hydroxy-2-methylpropyl)amino)pyridazin-3-yl)-3-methyl-5-(trifluoromethyl)phenol] | 0.0859 µM |  |
| Cc1cc(C(F)(F)F)cc(O)c1-c1ccc(N[C@H]2CCCN3CCC[C@@H]23)nn1 (single isomer, unassigned) [Ex 83b] | 0.0694 µM |  |
| C[C@]1(O)C[C@@H](Nc2cc(C(F)(F)F)c(-c3ccc(Cl)cc3O)nn2)C1 [Ex 69, 5-Chloro-2-(6-(((cis)-3-hydroxy-3-methylcyclobutyl)amino)-4-(trifluoromethyl)pyridazin-3-yl)phenol] | 0.431 µM |  |
| Cc1cc(C(F)(F)F)cc(O)c1-c1ccc(NCC(C)(C)N)nn1 [Ex 29, 2-(6-((2-Amino-2-methylpropyl)amino)pyridazin-3-yl)-3-methyl-5-(trifluoromethyl)phenol] | 0.169 µM |  |
| Cc1cc(N[C@H]2C[C@@](C)(O)C2)nnc1-c1ccc(C(F)(F)F)cc1O [Ex 55, 2-(6-(((cis)-3-Hydroxy-3-methylcyclobutyl)amino)-4-methylpyridazin-3-yl)-5-(trifluoromethyl)phenol] | 0.0458 µM |  |
| Cc1cc(C(F)(F)F)cc(O)c1-c1ccc(N[C@@H]2CCC[C@H](O)C2)nn1 [Ex 3, 2-(6-(((1R,3S)-3-Hydroxycyclohexyl)amino)pyridazin-3-yl)-3-methyl-5-(trifluoromethyl)phenol] | 0.0255 µM |  |
| Cc1cc(C(F)(F)F)cc(O)c1-c1ccc(NCC2COCCN2C)nn1 (racemic) [Ex 77, (rac)-3-Methyl-2-(6-(((4-methylmorpholin-3-yl)methyl)amino)pyridazin-3-yl)-5-(trifluoromethyl)phenol] | 0.0619 µM |  |
| Cc1cc(C(F)(F)F)cc(O)c1-c1ccc(N[C@@H]2CCC[C@@H](O)C2)nn1 [Ex 58, 2-(6-(((1R,3R)-3-Hydroxycyclohexyl)amino)pyridazin-3-yl)-3-methyl-5-(trifluoromethyl)phenol] | 0.0584 µM |  |
| Cc1cc(-c2c(C)cc(C(F)(F)F)cc2O)nnc1NCC(C)(C)O [Ex 72, 2-(6-((2-Hydroxy-2-methylpropyl)amino)-5-methylpyridazin-3-yl)-3-methyl-5-(trifluoromethyl)phenol] | 0.0449 µM |  |
| Cc1cc(C(F)(F)F)cc(O)c1-c1ccc(N[C@@H]2CCC[C@H]2O)nn1 (relative stereo) [Ex 24, (trans)-2-(6-((2-Hydroxycyclopentyl)amino)pyridazin-3-yl)-3-methyl-5-(trifluoromethyl)phenol] | 0.12 µM |  |
| Cc1cc(NCC(C)(C)O)nnc1-c1c(C)cc(C(F)(F)F)cc1O [Ex 73, 2-(6-((2-Hydroxy-2-methylpropyl)amino)-4-methylpyridazin-3-yl)-3-methyl-5-(trifluoromethyl)phenol] | 0.154 µM |  |
| Cc1cc(-c2c(C)cc(C(F)(F)F)cc2O)nnc1N[C@H]1C[C@@](C)(O)C1 [Ex 54, 2-(6-(((cis)-3-Hydroxy-3-methylcyclobutyl)amino)-5-methylpyridazin-3-yl)-3-methyl-5-(trifluoromethyl)phenol] | 0.0118 µM |  |
| (3R)-3-((6-(2-Hydroxy-6-methyl-4-(trifluoromethyl)phenyl)-4-methylpyridazin-3-ylamino)-1-methylpiperidine 1-oxide TFA-salt [Ex 104] | 0.059 µM | > 100 µM |
| Cc1cc(C(F)(F)F)cc(O)c1-c1ccc(NCc2ccccn2)nn1 [Ex 28, 3-Methyl-2-(6-((pyridin-2-ylmethyl)amino)pyridazin-3-yl)-5-(trifluoromethyl)phenol] | 0.288 µM |  |
| Cc1cc(-c2c(C)cc(C(F)(F)F)cc2O)nnc1N[C@@H]1CCCN(C)C1=O [Ex 102, (R)-3-((6-(2-Hydroxy-6-methyl-4-(trifluoromethyl)phenyl)-4-methylpyridazin-3-yl)amino)-1-methylpiperidin-2-one] | 0.049 µM |  |
| Cc1cc(C(F)(F)F)cc(O)c1-c1ccc(NCC(C)(C)N(C)C)nn1 [Ex 16, 2-(6-((2-(Dimethylamino)-2-methylpropyl)amino)pyridazin-3-yl)-3-methyl-5-(trifluoromethyl)phenol] | 0.0363 µM |  |
| Cc1cc(C(F)(F)F)cc(O)c1-c1ccc(NC[C@H]2CCCN2)nn1 [Ex 14, (R)-3-Methyl-2-(6-((pyrrolidin-2-ylmethyl)amino)pyridazin-3-yl)-5-(trifluoromethyl)phenol] | 0.0857 µM |  |
| Cc1cc(C(F)(F)F)cc(O)c1-c1ccc(NC[C@@H]2C[C@H](F)CN2)nn1 [Ex 75, 2-(6-((((2S,4S)-4-Fluoropyrrolidin-2-yl)methyl)amino)pyridazin-3-yl)-3-methyl-5-(trifluoromethyl)phenol] | 0.0183 µM |  |
| Cc1ncccc1CNc1ccc(-c2c(O)cc(Cl)cc2C(F)(F)F)nn1 [Ex 35, 5-Chloro-2-(6-(((2-methylpyridin-3-yl)methyl)amino)pyridazin-3-yl)-3-(trifluoromethyl)phenol] | 0.243 µM |  |
| Cc1cc(C(F)(F)F)cc(O)c1-c1ccc(NC[C@@H]2CCCCN2)nn1 [Ex 21, (S)-3-Methyl-2-(6-((piperidin-2-ylmethyl)amino)pyridazin-3-yl)-5-(trifluoromethyl)phenol] | 0.0484 µM |  |
| Cc1cc(C(F)(F)F)cc(O)c1-c1ccc(NC[C@H]2CCCCN2)nn1 [Ex 20, (R)-3-Methyl-2-(6-((piperidin-2-ylmethyl)amino)pyridazin-3-yl)-5-(trifluoromethyl)phenol] | 0.0823 µM |  |
| Cc1cc(C(F)(F)F)cc(O)c1-c1ccc(N[C@@H]2CCCN(C)C2=O)nn1 [Ex 59, (R)-3-((6-(2-Hydroxy-6-methyl-4-(trifluoromethyl)phenyl)pyridazin-3-yl)amino)-1-methylpiperidin-2-one] | 0.0359 µM |  |
| Cc1cc(C(F)(F)F)cc(O)c1-c1ccc(NC[C@@H](O)C(C)C)nn1 (single isomer, unassigned) [Ex 90a] | 0.0642 µM |  |
